Laboratory results: patent US8987320B2, “Solid salt forms of a pyrrole substituted 2-indolinone” (Zoetis LLC, priority 2005, dated 2015)
Several values for one entry are separate records, joined by “and”; a condition that tells them apart may be missing. Identical values can stand only once. Entries after “also recorded” stand apart in the source; their conditions may differ. Like-named read-outs stand apart in the source and are kept apart here.

Key:
ERK1/2 = ERK1/2 phosphorylation in canine mast cell tumor biopsies before and after a single dose (Western blot); format: in vivo; conditions: single oral dose 3.25 mg/kg
Protocol: (§1) Study Design. This study was a proof of target modulation study in dogs with recurrent or metastatic grade MCTs. Patients received a single oral dose of Compound I phosphate at 3.25 mg/kg. Using a 6-mm punch biopsy instrument, samples were obtained from the tumor before Compound I phosphate administration and 8 hours (h) after treatment. When possible, multiple biopsies were taken. Each sample was flash frozen in liquid nitrogen and stored at −70° centigrade (C) before analysis. Blood samples for analysis of plasma levels of Compound I phosphate were obtained at the same time as tumor biopsies (see below).
Analysis of KIT and ERK Phosphorylation. […] The amount of phosphorylated KIT in each sample was determined by Western blot using an antibody to phosphotyrosine 719 of murine KIT (3391; Cell Signaling Technology, Beverly, Mass.), which corresponds to tyrosine 721 of canine KIT and is an autophosphorylation site and, thus, a surrogate for KIT kinase activity. […] Target modulation was scored by eye by three observers blinded to the JM status and plasma concentration. Reduction of ≧50% in phospho-protein signal relative to total protein signal in the biopsy sample taken post-treatment compared with the pretreatment biopsy was scored as positive for target modulation, whereas a reduction of <50% was scored negative.

Wettability with water = format: physicochemical
[1] = Dynamic moisture sorption gravimetry (DMSG) of salts of Compound I; format: physicochemical
Protocol: Dynamic Moisture Sorption Gravimetry (DMSG).
DMSG isotherm was collected on a temperature controlled atmospheric microbalance. Approximately 10 mg samples were placed in the sample pan of the balance. The humidity was sequentially varied from room relative humidity (RH) to 0% RH and was then increased to 90% RH followed by a decrease of RH to 0% again in 3% RH steps. The mass was then measured every two minutes. The RH was stepped to the next target value when change of the sample mass was less than 0.5 μg in 10 min. The Visual Basic program dmsgscn2.exe was used to control the data collection and export the information to an Excel spreadsheet.

[2] = Estimation of solubility in various solvents by step-wise solvent addition; format: physicochemical
Protocol: Samples of 1-2 mg of Compound I phosphate (lot 35282-CS-51) were transferred to 10 mL glass vials (tared) and were weighed (accurate to 0.1 mg). Solvents were added to the vials (one solvent to each vial) in a step-wise fashion, with 0.5 mL of solvent added at each step. Solvents used were buffer (pH=2), buffer (pH=5), water, methanol, tetrahydrofuran (THF), acetonitrile, and acetone. After each addition, the vial was capped and shaken. The dissolution of solid was visually observed. If no obvious dissolution was observed, more solvent was added immediately. If dissolution was apparent, the vial was left on the bench for at least 30 minutes before the next addition of solvent. This step was repeated until no crystals were visible against a black and a white background. The solubility was then bracketed by dividing the weight of the compound by the final volume and the volume before the last addition. If a solid remained after the addition of 10 mL of solvent, the solubility was expressed as less than the weight divided by the final volume. If the solid was completely dissolved after the first addition of solvent, the solubility was expressed as greater than the weight divided by the solvent volume. All experiments were conducted at room temperature.

KIT = KIT phosphorylation in canine mast cell tumor biopsies before and after a single dose (immunoprecipitation/Western blot); format: in vivo
Protocol: as §1
Analysis of KIT and ERK Phosphorylation. Tumor biopsies were frozen in liquid nitrogen and later pulverized using a liquid nitrogen-cooled cryomortar and pestle, then stored at −70° C. until used. For the analysis of KIT, pulverized tumors were homogenized, lysed, and immunoprecipitated from 1 mg of starting tumor lysate, as described previously (Abrams, T. J., Lee, L. B., Murray, L. J., Pryer, N. K., Cherrington, J. M. SU11248 inhibits KIT and platelet-derived growth factor receptor beta in preclinical models of human small cell lung cancer. Mol. Cancer Ther. 2: 471-478, 2003; which is incorporated by reference in its entirety) using an agarose-conjugated antibody to KIT (SC-1493AC; Santa Cruz Biotechnology, Santa Cruz, Calif.). […] The amount of phosphorylated KIT in each sample was determined by Western blot using an antibody to phosphotyrosine 719 of murine KIT (3391; Cell Signaling Technology, Beverly, Mass.), which corresponds to tyrosine 721 of canine KIT and is an autophosphorylation site and, thus, a surrogate for KIT kinase activity. […] Target modulation was scored by eye by three observers blinded to the JM status and plasma concentration. Reduction of ≧50% in phospho-protein signal relative to total protein signal in the biopsy sample taken post-treatment compared with the pretreatment biopsy was scored as positive for target modulation, whereas a reduction of <50% was scored negative.

[3] = Compound I phosphate plasma levels in dogs with mast cell tumors (LC/MS/MS); format: in vivo, canine; conditions: for concentration at 8 h / Cmax at 8 h: dog, plasma, oral; for Cmax at 8 h: dogs
Protocol: as §1
Compound I Phosphate Plasma Levels. Blood samples were drawn from the jugular vein and placed into a red-top serum collection vacuum glass tube. Specimens were kept at room temperature, allowed to clot, centrifuged at 1500 rpm at 4° C. for 10 minutes, transferred to cryovials, and plasma frozen at −70° C. pending analysis. Briefly, plasma samples (20 μl) or Compound I phosphate standards in canine plasma were mixed with methanol (200 μl) containing DL-propranolol hydrochloride (internal standard) in a 96-well polypropylene plate (Orochem Technology, Westmont, Ill.). The plate was mixed by vortex for 1 min, and the samples were centrifuged for 10 min at 4000 rpm. Ten microliters of the supernatant were injected onto the LC/MS/MS system, in which separation occurred on a BataBasic C-18 (5 μm, 100×4.6 mm) reverse-phase high-performance liquid chromatography column (Keystone Scientific, Foster City, Calif.). The amount of Compound I phosphate and the internal standard in each canine plasma sample were quantified based on standard curves generated using known amounts of compound ranging from 0.2 to 500 ng/ml.

wettability with water compared with Compound I free base (Wettability with water): much better | % water at 80% RH ([1]; 80% RH): ~1% | water at 80 percent humidity ([1]; 80 percent relative humidity): about 1% | Estimated solubility ([2]; Acetone, 23° C.): <<<0.2 mg/mL | Estimated solubility ([2]; Acetonitrile, 23° C.): <<<0.13 mg/mL | Estimated solubility ([2]; THF, 23° C.): <<<0.19 mg/mL | solubility ([2]; buffer (pH 2), pH 2, at pH 2 or lower, read-out: solubility): > 3000 µg/mL | solubility ([2]; buffer (pH 2, HCl and KCl), 23 °C, pH 2, aqueous buffer, thermodynamic from solid, buffer (pH = 2, HCl and KCl), 23° C., read-out: Estimated solubility): 5900 to 7400 µg/mL | Estimated solubility ([2]; methanol, 23° C.): ~0.14 mg/mL | solubility ([2]; water, 23 °C, pH 4.91, water, thermodynamic from solid, water, 23° C., final solution pH 4.91, read-out: Estimated solubility): ~290 µg/mL | concentration at 8 h ([3]; 3.25 mg/kg, single dose at 3.25 mg/kg, 8 h, read-out: average plasma concentration for dogs that did not score for KIT target modulation): 137 ± 36 ng/mL | concentration at 8 h ([3]; 3.25 mg/kg, single dose at 3.25 mg/kg, 8 h, read-out: average plasma concentration for dogs with evidence of KIT target modulation): 79.2 ± 41 ng/mL | Cmax at 8 h ([3]; 3.25 mg/kg, single dose at 3.25 mg/kg, read-out: plasma concentration at 8 h (approximately Cmax), average): 105 ± 9 ng/mL | Cmax at 8 h ([3]; 3.25 mg/kg, single dose at 3.25 mg/kg, read-out: plasma concentration at 8 h (approximately Cmax), range over dogs): 33.2 to 186 ng/mL | dogs with plasma levels considered to be in the therapeutic range ([3]; single dose at 3.25 mg/kg, 8 h): Twelve
Structure (SMILES): Cc1[nH]c(/C=C2\C(=O)Nc3ccc(F)cc32)c(C)c1C(=O)NCCN1CCCC1 [Compound I phosphate]
P-ERK½ reduction postdose (Phospho-Thr202/Tyr204 ERK½) (ERK1/2; individual dogs, biopsy 8 h after treatment vs pretreatment): Yes (Reduction of ≧50% in phospho-protein signal relative to total protein signal in the biopsy sample taken post-treatment compared with the pretreatment biopsy was scored as positive for target modulation); also recorded: No (a reduction of <50% was scored negative) | evaluable tumors showing a reduction in the ratio of phospho-ERK1/2 to total ERK1/2 (ERK1/2): 7 of 11 evaluable | evaluable MCT biopsy pairs with detectable inhibition of KIT activation (KIT; Eight of 11, single oral dose): 73% | P-KIT reduction postdose (Phospho-Tyr721 KIT) (KIT; individual dogs, single oral dose 3.25 mg/kg, biopsy 8 h after treatment vs pretreatment): Yes (Reduction of ≧50% in phospho-protein signal relative to total protein signal in the biopsy sample taken post-treatment compared with the pretreatment biopsy was scored as positive for target modulation); also recorded: No (a reduction of <50% was scored negative) | evaluable dogs scored positive for KIT target modulation (≧50% reduction in phosphorylated KIT relative to total KIT) (KIT; single oral dose 3.25 mg/kg): Eight | Plasma Compound I phosphate postdose ([3]; individual dogs, single oral dose 3.25 mg/kg, 8 h after dosing, 3.25 mg/kg): 0.3 ng/mL and 83.5 ng/mL and 98.0 ng/mL and 116.0 ng/mL and 121.0 ng/mL and 186.0 ng/mL and 103.0 ng/mL and 111.0 ng/mL and 158.0 ng/mL and 65.3 ng/mL and 95.4 ng/mL and 119.0 ng/mL and 81.0 ng/mL and 33.2 ng/mL
